In US6355799B1, “Substituted benzene compounds, process for their preparation, and herbicidal and defoliant compositions containing them” (ISK Americas Incorporated, priority 1997, dated 2002):

Assays:
Assay type in all cases: in vivo
[1] = tested on: redroot pigweed (Amaranthus retroflexus, AMARE); experiment: Pre-emerge test, greenhouse herbicide activity screening; settings: pre-emerge, rated 14 days after application, 0 = no damage, 100 = complete death
In short: (§1)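 Visual ratings on a 0-100 scale (0 no damage, 100 all plants dead) were taken at 14 days after treatment. Rates of 15-1000 g ai/ha in acetone, 187 l/ha, were sprayed onto soil one day after planting (pre-emerge) or onto 2-3 leaf plants with 0.25% v/v surfactant (post-emerge).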

[2] = tested on: field corn (Zea mays L., var. Dekalb 535, CORN); experiment: Post-emerge test, crop safety; settings: phytotoxicity rating 0-100 (0 no damage, 100 complete death), 14 days after application
In short: (§2)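 Compounds in acetone were track-sprayed at 187 l/ha, 15–1000 g ai/ha, onto sandy loam pots. Pre-emerge seeds were sown one day before spraying, with surface watering afterwards. Post-emerge plants were at the 2–3 leaf stage and sprayed with 0.25% v/v non-ionic surfactant. Injury was rated 0–100 at 14 days.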

[3] = tested on: upland rice (Oryza sp., var. Tebonnet, RICE); experiment: Post-emerge test, crop safety; settings: phytotoxicity rating 0-100 (0 no damage, 100 complete death), 14 days after application
In short: as §2

[4] = tested on: field corn (Zea mays L., var. Dekalb 535, CORN); experiment: Pre-emerge test, crop safety; settings: pre-emerge, rated 14 days after application, 0 = no damage, 100 = complete death
In short: as §1

[5] = tested on: upland rice (Oryza sp., var. Tebonnet, RICE); experiment: Pre-emerge test, crop safety; settings: pre-emerge, rated 14 days after application, 0 = no damage, 100 = complete death
In short: as §1

[6] = tested on: ivyleaf morningglory (Ipomoea hederacea, IPOHE); experiment: Pre-emerge test, greenhouse herbicide activity screening; settings: pre-emerge, rated 14 days after application, 0 = no damage, 100 = complete death
In short: as §2

[7] = tested on: lambsquarters (Chenopodium album, CHEAL); experiment: as above; settings: pre-emerge, rated 14 days after application, 0 = no damage, 100 = complete death
In short: as §2

[8] = tested on: large crabgrass (Digitaria sanguinalis, DIGSA); experiment: as above; settings: pre-emerge, rated 14 days after application, 0 = no damage, 100 = complete death
In short: as §2

[9] = tested on: johnsongrass (Sorghum halepense, SORHA); experiment: as above; settings: pre-emerge, rated 14 days after application, 0 = no damage, 100 = complete death
In short: as §2

[10] = tested on: sicklepod (Cassia obtusifolia, CASOB); experiment: as above; settings: pre-emerge, rated 14 days after application, 0 = no damage, 100 = complete death
In short: as §2

[11] = tested on: velvetleaf (Abutilon theophrasti, ABUTH); experiment: as above; settings: pre-emerge, rated 14 days after application, 0 = no damage, 100 = complete death
In short: as §2

[12] = tested on: green foxtail (Setaria viridis, SETVI); experiment: as above; settings: pre-emerge, rated 14 days after application, 0 = no damage, 100 = complete death
In short: as §2

[13] = tested on: barnyardgrass (Echinochloa crus-galli, ECHCG); experiment: as above; settings: pre-emerge, rated 14 days after application, 0 = no damage, 100 = complete death
In short: as §2

[14] = tested on: common ragweed (Ambrosia artemisizfolia L., AMBEL); experiment: as above; settings: pre-emerge, rated 14 days after application, 0 = no damage, 100 = complete death
In short: as §2

[15] = tested on: ivyleaf morningglory (Ipomoea hederacea, IPOHE); experiment: Post-emerge test, greenhouse herbicide activity screening; settings: phytotoxicity rating 0-100 (0 no damage, 100 complete death), 14 days after application
In short: (§3)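 Fourteen days after spraying, crop and weed injury was graded visually from 0, no effect, to 100, every plant dead. Test substances were dissolved in acetone and applied at 15–1000 g ai/ha with a flat-fan nozzle. Application was either pre-emergence, one day after sowing, or post-emergence at the 2–3 leaf stage.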

[16] = tested on: lambsquarters (Chenopodium album, CHEAL); experiment: as above; settings: phytotoxicity rating 0-100 (0 no damage, 100 complete death), 14 days after application
In short: as §3

[17] = tested on: large crabgrass (Digitaria sanguinalis, DIGSA); experiment: as above; settings: phytotoxicity rating 0-100 (0 no damage, 100 complete death), 14 days after application
In short: as §3

[18] = tested on: johnsongrass (Sorghum halepense, SORHA); experiment: as above; settings: phytotoxicity rating 0-100 (0 no damage, 100 complete death), 14 days after application
In short: as §3

[19] = tested on: sicklepod (Cassia obtusifolia, CASOB); experiment: as above; settings: phytotoxicity rating 0-100 (0 no damage, 100 complete death), 14 days after application
In short: as §3

[20] = tested on: velvetleaf (Abutilon theophrasti, ABUTH); experiment: as above; settings: phytotoxicity rating 0-100 (0 no damage, 100 complete death), 14 days after application
In short: as §3

[21] = tested on: green foxtail (Setaria viridis, SETVI); experiment: as above; settings: phytotoxicity rating 0-100 (0 no damage, 100 complete death), 14 days after application
In short: as §3

[22] = tested on: barnyardgrass (Echinochloa crus-galli, ECHCG); experiment: as above; settings: phytotoxicity rating 0-100 (0 no damage, 100 complete death), 14 days after application
In short: as §3

[23] = tested on: common ragweed (Ambrosia artemisizfolia L., AMBEL); experiment: as above; settings: phytotoxicity rating 0-100 (0 no damage, 100 complete death), 14 days after application
In short: as §3

[24] = tested on: redroot pigweed (Amaranthus retroflexus, AMARE); experiment: as above; settings: phytotoxicity rating 0-100 (0 no damage, 100 complete death), 14 days after application
In short: as §3

## COc1c(Cl)cc(F)c(-n2c(=O)cc(C(F)(F)F)n(N)c2=O)c1N [Compound 1-13]
[1]; 63 g ai/ha
  Pre-emerge Herbicidal Activity AMARE (phytotoxicity rating, scale 0-100): 100
[1]; 250 g ai/ha
  Pre-emerge Herbicidal Activity AMARE (phytotoxicity rating, scale 0-100): 100
[2]; 63 g ai/ha
  Post-emerge Herbicidal Activity CORN (crop damage): 20
[2]; 250 g ai/ha
  Post-emerge Herbicidal Activity CORN (crop damage): 80
[3]; 63 g ai/ha
  Post-emerge Herbicidal Activity RICE (crop damage): 30
[3]; 250 g ai/ha
  Post-emerge Herbicidal Activity RICE (crop damage): 80
[4]; 63 g ai/ha
  Pre-emerge crop damage CORN (phytotoxicity rating, scale 0-100): 60
[4]; 250 g ai/ha
  Pre-emerge crop damage CORN (phytotoxicity rating, scale 0-100): 95
[5]; 63 g ai/ha
  Pre-emerge crop damage RICE (phytotoxicity rating, scale 0-100): 95
[5]; 250 g ai/ha
  Pre-emerge crop damage RICE (phytotoxicity rating, scale 0-100): 100
[6]; 63 g ai/ha
  Pre-emerge Herbicidal Activity IPOHE (phytotoxicity rating, scale 0-100): 100
[6]; 250 g ai/ha
  Pre-emerge Herbicidal Activity IPOHE (phytotoxicity rating, scale 0-100): 100
[7]; 63 g ai/ha
  Pre-emerge Herbicidal Activity CHEAL (phytotoxicity rating, scale 0-100): 100
[7]; 250 g ai/ha
  Pre-emerge Herbicidal Activity CHEAL (phytotoxicity rating, scale 0-100): 100
[8]; 63 g ai/ha
  Pre-emerge Herbicidal Activity DIGSA (phytotoxicity rating, scale 0-100): 100
[8]; 250 g ai/ha
  Pre-emerge Herbicidal Activity DIGSA (phytotoxicity rating, scale 0-100): 100
[9]; 63 g ai/ha
  Pre-emerge Herbicidal Activity SORHA (phytotoxicity rating, scale 0-100): 95
[9]; 250 g ai/ha
  Pre-emerge Herbicidal Activity SORHA (phytotoxicity rating, scale 0-100): 100
[10]; 63 g ai/ha
  Pre-emerge Herbicidal Activity CASOB (phytotoxicity rating, scale 0-100): 80
[10]; 250 g ai/ha
  Pre-emerge Herbicidal Activity CASOB (phytotoxicity rating, scale 0-100): 100
[11]; 63 g ai/ha
  Pre-emerge Herbicidal Activity ABUTH (phytotoxicity rating, scale 0-100): 100
[11]; 250 g ai/ha
  Pre-emerge Herbicidal Activity ABUTH (phytotoxicity rating, scale 0-100): 100
[12]; 63 g ai/ha
  Pre-emerge Herbicidal Activity SETVI (phytotoxicity rating, scale 0-100): 100
[12]; 250 g ai/ha
  Pre-emerge Herbicidal Activity SETVI (phytotoxicity rating, scale 0-100): 100
[13]; 63 g ai/ha
  Pre-emerge Herbicidal Activity ECHCG (phytotoxicity rating, scale 0-100): 90
[13]; 250 g ai/ha
  Pre-emerge Herbicidal Activity ECHCG (phytotoxicity rating, scale 0-100): 100
[14]; 63 g ai/ha
  Pre-emerge Herbicidal Activity AMBEL (phytotoxicity rating, scale 0-100): 100
[14]; 250 g ai/ha
  Pre-emerge Herbicidal Activity AMBEL (phytotoxicity rating, scale 0-100): 100
[15]; 63 g ai/ha
  Post-emerge Herbicidal Activity IPOHE: 100
[15]; 250 g ai/ha
  Post-emerge Herbicidal Activity IPOHE: 100
[16]; 63 g ai/ha
  Post-emerge Herbicidal Activity CHEAL: 100
[16]; 250 g ai/ha
  Post-emerge Herbicidal Activity CHEAL: 100
[17]; 63 g ai/ha
  Post-emerge Herbicidal Activity DIGSA: 0
[17]; 250 g ai/ha
  Post-emerge Herbicidal Activity DIGSA: 75
[18]; 63 g ai/ha
  Post-emerge Herbicidal Activity SORHA: 10
[18]; 250 g ai/ha
  Post-emerge Herbicidal Activity SORHA: 90
[19]; 63 g ai/ha
  Post-emerge Herbicidal Activity CASOB: 30
[19]; 250 g ai/ha
  Post-emerge Herbicidal Activity CASOB: 70
[20]; 63 g ai/ha
  Post-emerge Herbicidal Activity ABUTH: 100
[20]; 250 g ai/ha
  Post-emerge Herbicidal Activity ABUTH: 100
[21]; 63 g ai/ha
  Post-emerge Herbicidal Activity SETVI: 30
[21]; 250 g ai/ha
  Post-emerge Herbicidal Activity SETVI: 90
[22]; 63 g ai/ha
  Post-emerge Herbicidal Activity ECHCG: 30
[22]; 250 g ai/ha
  Post-emerge Herbicidal Activity ECHCG: 70
[23]; 63 g ai/ha
  Post-emerge Herbicidal Activity AMBEL: 70
[23]; 250 g ai/ha
  Post-emerge Herbicidal Activity AMBEL: 85
[24]; 63 g ai/ha
  Post-emerge Herbicidal Activity AMARE: 100
[24]; 250 g ai/ha
  Post-emerge Herbicidal Activity AMARE: 100
